Earlier results as cited in patent US20110082407A1, “Combination Therapies for the Treatment of Obesity” (priority 2009, published 2011).

Assays:
[1] = in vivo
[2] = literature studies

| Compound | clinically significant side effect limiting clinical use [1] | weight loss of body weight for drug compared with placebo [2] | solubility in water |
| --- | --- | --- | --- |
| CCN[C@@H](C)Cc1cccc(C(F)(F)F)c1 [dexfenfluramine] | suspected heart valvulopathy | about 5% |  |
| CCNC(C)Cc1cccc(C(F)(F)F)c1 (centres unmarked) [fenfluramine] | caused heart-valve complications |  |  |
| CCCCCCCCCCC[C@@H](C[C@@H]1OC(=O)[C@H]1CCCCCC)OC(=O)[C@H](CC(C)C)NC=O [orlistat] | GI side effects | about 5% |  |
| CC(C)CC(N(C)C)C1(c2ccc(Cl)cc2)CCC1 (centres unmarked) [sibutramine] | can cause hypertension | about 5% |  |
| triacetyl-beta-cyclodextrin |  |  | insoluble |
